Earlier results on one molecule are cited in patent US20240416337A1, “Quantitation of chemical, biological and biochemical analytes on a flow assay using a smartphone” (Real-Time Analyzers, Inc., priority 2023, published 2024).

The conditions of series [1]: blood compared with saliva.
For series [2] the following is noted: in vivo.

On to `C=CC[C@@H]1/C=C(\C)C[C@H](C)C[C@H](OC)[C@H]2O[C@@](O)(C(=O)C(=O)N3CCCC[C@H]3C(=O)O[C@H](/C(C)=C/[C@@H]3CC[C@@H](O)[C@H](OC)C3)[C@H](C)[C@@H](O)CC1=O)[C@H](C)C[C@@H]2OC` [tacrolimus], for which the “ionization at physiological pH” value is listed as “does not ionize”. In series [1], the “tacrolimus concentration in the blood” value was “modestly higher than in saliva”. Further, in series [2], the “passage through salivary glands into the oral cavity” value is reported as “readily passes through salivary glands”.
